# Patent US6372719B1, “ανβ3 integrin antagonists in combination with chemotherapeutic agents” (priority 1998, dated 2002)
# What was measured:
# M21 human melanoma = assay: Tumor growth inhibition, M21 human melanoma in mice; format: in vivo, SCID mice; settings: cyclophosphamide 150 mg/kg ip on days 14, 16 and 18
# Description: In this model, cyclophosphamide was administered (150 mg/kg;ip) on days 14, 16 and 18, and XII (10 mg/kg, BID, PO) was administered continuously after the chemotherapeutic beginning on day 21.
# LLC tumor = assay: Tumor growth inhibition, LLC tumor in mice
# Description: Tumor cells for implantation were taken from cells either grown in tissue culture (Leydig, M21) or serially passaged as tumors in mice and prepared as tumor brei (LLC, PC-3) by methodology known in the art. Mice were injected subcutaneously in the proximal dorsal midline with 5×10^6 tumor cells and administration of test αvβ3 integrin antagonist compound was initiated the evening of the same day either prior to the chemotherapeutic agent, delayed and on the same day as the chemotherapeutic agent or delayed and following the chemotherapeutic agent. Tumor volumes were measured at intervals over the course of the experiments. Tumors were measured with a vernier caliper and volumes were determined using the formula for the volume of a cylinder: tumor volume=width^2×length×0.52. Blood was routinely drawn, for serum calcium determination and plasma drug concentration, 6 hours post-dosing on day 4 or 5 and again 12 hours post-dosing on the day of sacrifice. On the final day of the experiment, tumors were dissected free and weighed. Calcium concentrations of serum samples were determined calorimetrically using a clinical diagnostic kit. The data are expressed as the mean +/− SEM. Student's and Mann-Whitney tests were used to assess differences between means or medians using the InStat software package.
# Rice Leydig tumor cells = assay: Tumor growth inhibition, Rice Leydig tumor in SCID mice
# Description: Tumor cells for implantation were taken from cells either grown in tissue culture (Leydig, M21) or serially passaged as tumors in mice and prepared as tumor brei (LLC, PC-3) by methodology known in the art. Mice were injected subcutaneously in the proximal dorsal midline with 5×10^6 tumor cells and administration of test αvβ3 integrin antagonist compound was initiated the evening of the same day either prior to the chemotherapeutic agent, delayed and on the same day as the chemotherapeutic agent or delayed and following the chemotherapeutic agent. Tumor volumes were measured at intervals over the course of the experiments. Tumors were measured with a vernier caliper and volumes were determined using the formula for the volume of a cylinder: tumor volume=width^2×length×0.52. […] On the final day of the experiment, tumors were dissected free and weighed. […] The data are expressed as the mean +/− SEM. Student's and Mann-Whitney tests were used to assess differences between means or medians using the InStat software package.
# [1] = cisplatin 10 mg/kg ip day 5, XII at 10 mg/kg
Compound,Inhibition of growth of M21 tumors (M21 human melanoma),Median survival time (LLC tumor; [1]) [days],Time to develop a tumor >500 mm^3 (LLC tumor; [1]) [days],"Effect on growth of the LLC tumor (LLC tumor; cisplatin single ip dose 10 mg/kg on day 5, XII 1 and 10 mg/kg, oral, BID from day 1)","Tumor growth inhibition (Rice Leydig tumor cells; cisplatin at maximum tolerated dose, XII 10 mg/kg PO, compared to control-treated mice)",Effect on survival time (Rice Leydig tumor cells; tumor bearing SCID mice)
"O=P1(N(CCCl)CCCl)NCCCO1 (stereo not drawn) [Cyclophosphamide, cyclophosphamide]",significantly inhibited,,,,,
"N.N.[Cl][Pt][Cl] [Cisplatin, cisplatin]",,33,22.4,significantly retarded,approximately 50%,little effect
